{"source": "patent US12454529B2", "about": "“Piperazine cyclic ureas” (SIRONAX LTD., priority 2020, dated 2025)"}
{"test_system": "HT-29 cells", "test": "HT-29 cell necrosis/necroptosis inhibition (TNF-α + SMAC mimetic + zVAD-FMK; CellTiter-Glo cell viability)", "type": "cell-based", "conditions": "HT-29 cells, TNF-α 10 ng/ml + SMAC mimetic 6 μM + zVAD-FMK 10 μM, 20 hours; geometric mean, 10 points in duplicate; read-out: EC50 (Cell activity; Necrosis/Necroptosis Inhibitory Activity, Compounds 143-323)", "in_short": "(§1)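 Necroptosis was driven by TNF-α 10 ng/ml plus SMAC mimetic 6 μM and zVAD-FMK 10 μM in serum-free medium, with compounds as a 10-point threefold titration. After 20 h at 37 °C, ATP-based luminescence was read; EC50 values are geometric means of duplicate curves.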", "units": {"EC50": "nM"}}
{"smiles": "Cc1nc(C)n(-c2nc(N3CCN(C(=O)N4N=CCC4c4cnc(C)s4)CC3)ncc2F)n1", "note": "(stereo not drawn) [Compound 214, (4-(4-(3,5-dimethyl-1H-1,2,4-triazol-1-yl)-5-fluoropyrimidin-2-yl)piperazin-1-yl)(5-(2-methylthiazol-5-yl)-4,5-dihydro-1H-pyrazol-1-yl)methanone]", "EC50": "0.1 to 100"}
{"test_system": "HT-29 cells", "test": "HT-29 cell necrosis/necroptosis inhibition (TNF-α + SMAC mimetic + zVAD-FMK; CellTiter-Glo cell viability)", "type": "cell-based", "conditions": "Homo sapiens; HT-29 cells, TNF-α 10 ng/ml + SMAC mimetic 6 μM + zVAD-FMK 10 μM, 20 hours; geometric mean, 10 points in duplicate; read-out: EC50 (Cell activity; Necrosis/Necroptosis Inhibitory Activity, Compounds 1-142)", "in_short": "as §1", "units": {"EC50": "nM"}}
{"smiles": "N#Cc1cn(-c2ccnc(N3CCN(C(=O)N4N=CC[C@H]4c4cc(F)cc(F)c4)CC3)n2)cn1", "note": "[Compound 2, (S)-1-(2-(4-(5-(3,5-difluorophenyl)-4,5-dihydro-1H-pyrazole-1-carbonyl)piperazin-1-yl)pyrimidin-4-yl)-1H-imidazole-4-carbonitrile]", "EC50": "0.1 to 100"}
{"smiles": "COC(=O)c1c[nH]c(-c2nc(N3CCN(C(=O)N4N=CC[C@H]4c4cc(F)cc(F)c4)CC3)ncc2F)c1", "note": "[Compound 12, methyl (S)-5-(2-(4-(5-(3,5-difluorophenyl)-4,5-dihydro-1H-pyrazole-1-carbonyl)piperazin-1-yl)-5-fluoropyrimidin-4-yl)-1H-pyrrole-3-carboxylate]", "EC50": "0.1 to 100"}
{"smiles": "Cc1c(-c2nc(N3CCN(C(=O)N4N=CC[C@H]4c4cc(F)cc(C#N)c4)CC3)ncc2F)nnn1CC(N)=O", "note": "[Compound 79, (S)-2-(4-(2-(4-(5-(3-cyano-5-fluorophenyl)-4,5-dihydro-1H-pyrazole-1-carbonyl)piperazin-1-yl)-5-fluoropyrimidin-4-yl)-5-methyl-1H-1,2,3-triazol-1-yl)acetamide]", "EC50": "0.1 to 100"}
{"smiles": "Cc1cn(-c2nc(N3CCN(C(=O)N4N=CC[C@H]4c4cc(F)cc(C#N)c4)CC3)ncc2F)c(C#N)n1", "note": "[Compound 16, (S)-1-(2-(4-(5-(3-cyano-5-fluorophenyl)-4,5-dihydro-1H-pyrazole-1-carbonyl)piperazin-1-yl)-5-fluoropyrimidin-4-yl)-4-methyl-1H-imidazole-2-carbonitrile]", "EC50": "0.1 to 100"}
{"smiles": "Cc1noc(C)c1-c1nc(N2CCN(C(=O)N3N=CC[C@H]3c3cc(F)cc(F)c3)CC2)ncc1F", "note": "[Compound 108, (S)-(5-(3,5-difluorophenyl)-4,5-dihydro-1H-pyrazol-1-yl)(4-(4-(3,5-dimethylisoxazol-4-yl)-5-fluoropyrimidin-2-yl)piperazin-1-yl)methanone]", "EC50": "0.1 to 100"}
{"smiles": "Cc1nnnn1-c1nc(N2CCN(C(=O)N3N=CC[C@H]3c3cc(F)cc(F)c3)CC2)ncc1F", "note": "[Compound 23, (S)-(5-(3,5-difluorophenyl)-4,5-dihydro-1H-pyrazol-1-yl)(4-(5-fluoro-4-(5-methyl-1H-tetrazol-1-yl)pyrimidin-2-yl)piperazin-1-yl)methanone]", "EC50": "0.1 to 100"}
{"smiles": "Cc1cnn(C)c1-c1nc(N2CCN(C(=O)N3N=CC[C@H]3c3cc(F)cc(C#N)c3)CC2)ncc1F", "note": "[Compound 62, (S)-3-(1-(4-(4-(1,4-dimethyl-1H-pyrazol-5-yl)-5-fluoropyrimidin-2-yl)piperazine-1-carbonyl)-4,5-dihydro-1H-pyrazol-5-yl)-5-fluorobenzonitrile]", "EC50": "0.1 to 100"}
{"test_system": "HT-29 cells", "test": "HT-29 cell necrosis/necroptosis inhibition (TNF-α + SMAC mimetic + zVAD-FMK; CellTiter-Glo cell viability)", "type": "cell-based", "conditions": "Homo sapiens; HT-29 cells, TNF-α 10 ng/ml + SMAC mimetic 6 μM + zVAD-FMK 10 μM, 20 hours; geometric mean, 10 points in duplicate; read-out: EC50 (Cell activity; Necrosis/Necroptosis Inhibitory Activity, Compounds 143-323)", "in_short": "as §1", "units": {"EC50": "nM"}}
{"smiles": "Cc1ncn(-c2nc(N3CCN(C(=O)N4N=CC[C@H]4c4ccccc4)CC3)ncc2F)n1", "note": "[Compound 309, (S)-(4-(5-fluoro-4-(3-methyl-1H-1,2,4-triazol-1-yl)pyrimidin-2-yl)piperazin-1-yl)(5-phenyl-4,5-dihydro-1H-pyrazol-1-yl)methanone]", "EC50": "0.1 to 100"}
{"smiles": "CCn1cnn(-c2nc(N3CCN(C(=O)N4N=CC[C@H]4c4cc(F)cc(F)c4)CC3)ncc2F)c1=O", "note": "[Compound 199, (S)-2-(2-(4-(5-(3,5-difluorophenyl)-4,5-dihydro-1H-pyrazole-1-carbonyl)piperazin-1-yl)-5-fluoropyrimidin-4-yl)-4-ethyl-2,4-dihydro-3H-1,2,4-triazol-3-one]", "EC50": "0.1 to 100"}
{"smiles": "Cc1nc(C2CC=NN2C(=O)N2CCN(c3cc(-c4c(C)cnn4C)ncc3F)CC2)cs1", "note": "(stereo not drawn) [Compound 156, (4-(2-(1,4-dimethyl-1H-pyrazol-5-yl)-5-fluoropyridin-4-yl)piperazin-1-yl)(5-(2-methylthiazol-4-yl)-4,5-dihydro-1H-pyrazol-1-yl)methanone]", "EC50": "100 to 1000"}
{"smiles": "Cc1nn(-c2cc(N3CCN(C(=O)N4N=CC[C@H]4c4cc(F)cc(C#N)c4)CC3)ncn2)c(C)c1Cl", "note": "[Compound 289, (S)-3-(1-(4-(6-(4-chloro-3,5-dimethyl-1H-pyrazol-1-yl)pyrimidin-4-yl)piperazine-1-carbonyl)-4,5-dihydro-1H-pyrazol-5-yl)-5-fluorobenzonitrile]", "EC50": "0.1 to 100"}
{"smiles": "Cn1nc(CF)nc1-c1ccnc(N2CCN(C(=O)N3N=CC[C@H]3c3cc(F)cc(C#N)c3)CC2)n1", "note": "[Compound 169, (S)-3-fluoro-5-(1-(4-(4-(3-(fluoromethyl)-1-methyl-1H-1,2,4-triazol-5-yl)pyrimidin-2-yl)piperazine-1-carbonyl)-4,5-dihydro-1H-pyrazol-5-yl)benzonitrile]", "EC50": "0.1 to 100"}
{"smiles": "Cc1[nH]nc(CO)c1-c1nc(N2CCN(C(=O)N3N=CC[C@H]3c3cc(F)cc(C#N)c3)CC2)ncc1F", "note": "[Compound 163, (S)-3-fluoro-5-(1-(4-(5-fluoro-4-(3-(hydroxymethyl)-5-methyl-1H-pyrazol-4-yl)pyrimidin-2-yl)piperazine-1-carbonyl)-4,5-dihydro-1H-pyrazol-5-yl)benzonitrile]", "EC50": "0.1 to 100"}
{"smiles": "Cc1csc(C2CC=NN2C(=O)N2CCN(c3nc(-c4c(C)cnn4C)ccc3F)CC2)n1", "note": "(stereo not drawn) [Compound 299, (4-(6-(1,4-dimethyl-1H-pyrazol-5-yl)-3-fluoropyridin-2-yl)piperazinyl)(5-(4-methylthiazol-2-yl)-4,5-dihydro-1H-pyrazol-1-yl)methanone]", "EC50": "0.1 to 100"}
{"smiles": "CCS(=O)(=O)c1c(C)nn(-c2nc(N3CCN(C(=O)N4N=CC[C@H]4c4cc(F)cc(C#N)c4)CC3)ncc2F)c1C", "note": "[Compound 205, (S)-3-(1-(4-(4-(4-(ethylsulfonyl)-3,5-dimethyl-1H-pyrazol-1-yl)-5-fluoropyrimidin-2-yl)piperazine-1-carbonyl)-4,5-dihydro-1H-pyrazol-5-yl)-5-fluorobenzonitrile]", "EC50": "0.1 to 100"}
{"smiles": "Cc1ncn(-c2nc(N3CCN(C(=O)N4N=CC[C@H]4c4cncc(F)c4)CC3)ncc2F)n1", "note": "[Compound 311, (S)-(4-(5-fluoro-4-(3-methyl-1H-1,2,4-triazol-1-yl)pyrimidin-2-yl)piperazin-1-yl)(5-(5-fluoropyridin-3-yl)-4,5-dihydro-1H-pyrazol-1-yl)methanone]", "EC50": "0.1 to 100"}
{"smiles": "Cc1cc[nH]c(=O)c1-c1nc(N2CCN(C(=O)N3N=CC[C@H]3c3cc(F)cc(C#N)c3)CC2)ncc1F", "note": "[Compound 164, (S)-3-fluoro-5-(1-(4-(5-fluoro-4-(4-methyl-2-oxo-1,2-dihydropyridin-3-yl)pyrimidin-2-yl)piperazine-1-carbonyl)-4,5-dihydro-1H-pyrazol-5-yl)benzonitrile]", "EC50": "0.1 to 100"}
{"smiles": "Cn1ncnc1-c1nc(N2CCN(C(=O)N3N=CCC3c3ncccc3Cl)CC2)ncc1F", "note": "(stereo not drawn) [Compound 221]", "EC50": "0.1 to 100"}
{"smiles": "Cn1ncnc1-c1ccc(F)c(N2CCN(C(=O)N3N=CC[C@H]3c3cc(F)cc(C#N)c3)CC2)n1", "note": "[Compound 176, (S)-3-fluoro-5-(1-(4-(3-fluoro-6-(1-methyl-1H-1,2,4-triazol-5-yl)pyridin-2-yl)piperazine-1-carbonyl)-4,5-dihydro-1H-pyrazol-5-yl)benzonitrile]", "EC50": "0.1 to 100"}
{"smiles": "Cn1ncnc1-c1ccc(F)c(N2CCN(C(=O)N3N=CCC3c3ncccc3Cl)CC2)n1", "note": "(stereo not drawn) [Compound 222, (5-(3-chloropyridin-2-yl)-4,5-dihydro-1H-pyrazol-1-yl)(4-(3-fluoro-6-(1-methyl-1H-1,2,4-triazol-5-yl)pyridin-2-yl)piperazin-1-yl)methanone]", "EC50": "0.1 to 100"}
